Data on four molecules can be found in BindingDB's records for doi:10.1016/S0960-894X(96)00274-0 (1996).

Structures are written as SMILES. pIC50: −log10 of the molar value.

The nature of test [1]: Compound was tested for Inhibition of 9 (1 nM) binding to Opioid receptor delta 1 from bovine striatal Membranes.
The nature of test [2]: Compound was tested for Inhibition of [3H]-DPDPE (0.2 nM) binding to Opioid receptor from bovine striatal Membranes.

What is called pIC50 is the negative decadic logarithm of the IC50, by convention in mol/L. Higher therefore signals a small IC50.

With `C=C(Cl)C(=O)N[C@@]12CCC(=O)[C@@H]3Oc4c(O)ccc5c4C31CCN(CC1CC1)C2C5` (stereo partly drawn) [1N-[4-cyclopropylmethyl-10-hydroxy-14-oxo-(13R,17S)-12-oxa-4-azapentacyclo[9.6.1.01,13.05,17.07,18]octadeca-7(18),8,10-trien-17-yl]-2-chloroacrylamide], the pIC50 in test [1] was 6.75; in test [2], 6.30.

With `C=C(Cl)C(=O)N[C@@H]1CCC2C3Cc4ccc(O)c5c4C2(CCN3CC2CC2)[C@H]1O5` (stereo partly drawn) [1N-[4-cyclopropylmethyl-10-hydroxy-(13R,14R)-12-oxa-4-azapentacyclo[9.6.1.01,13.05,17.07,18]octadeca-7(18),8,10-trien-14-yl]-2-chloroacrylamide], the figures for the negative logarithm of the IC50 (pIC50) in test [1] and in test [2] were 9.28 and 8.82, respectively.

With `C=C(Cl)C(=O)N[C@@H]1CCC2C3Cc4ccc(O)c5c4C2(CCN3C)[C@H]1O5` (stereo partly drawn) [1N-[10-hydroxy-4-methyl-(13R,14R)-12-oxa-4-azapentacyclo[9.6.1.01,13.05,17.07,18]octadeca-7(18),8,10-trien-14-yl]-2-chloroacrylamide], the pIC50 was 7.35 in test [1] and 7.59 in test [2].

Take `C=C(Cl)C(=O)N[C@@]12CCC(=O)[C@@H]3Oc4c(O)ccc5c4C31CCN(C)C2C5` (stereo partly drawn) [1N-[10-hydroxy-4-methyl-14-oxo-(13R,17S)-12-oxa-4-azapentacyclo[9.6.1.01,13.05,17.07,18]octadeca-7(18),8,10-trien-17-yl]-2-chloroacrylamide]: the pIC50 was 6.75 in test [1] and 6.74 in test [2].
